The source of these data is patent US7285621B2, “Multiple branch peptide construction” (Ambrilia Biopharma, priority 1999, dated 2007).

Each structure is given as a SMILES string. Where two headings read alike, the source gives them in different places.

In one data set the test system is H × 10 (HIV-1) strain. The method, then:
SPC3 is (GPGRAF)8-(K)4-(K)2-K-βA-OH as disclosed in WO95/07929. D4 and D5 refer to days 4 and 5 of the experiment. OD stands for Optical Density. N.B. Experiments were performed with non diluted virus solution.

Another data set has as its system C57/BL6 and Balb-C mice. Nature of the data set: Intra-cerebroventricular injection toxicity in mice. The following applies: 3×10^−3 M, 100 μg of peptide per 20 g mouse. The data set is classed as in vivo.

One may read the Inhibition as the drop in the measured response relative to a control, in per cent. Low readings indicate a response near the control, high ones a response far below the control. `CC(C)C[C@H](NC(=O)[C@@H]1CCCN1C(=O)[C@H](CO)NC(=O)[C@H](Cc1ccc(O)cc1)NC(=O)CNC(=O)[C@H](CCC(N)=O)NC(=O)[C@@H](N)CCCNC(=N)N)C(=O)NCCCC[C@H](NC(=O)[C@H](CC(C)C)NC(=O)[C@@H]1CCCN1C(=O)[C@H](CO)NC(=O)[C@H](Cc1ccc(O)cc1)NC(=O)CNC(=O)[C@H](CCC(N)=O)NC(=O)[C@@H](N)CCCNC(=N)N)C(=O)NCCCC[C@H](NC(=O)[C@H](CCCCNC(=O)[C@H](CC(C)C)NC(=O)[C@@H]1CCCN1C(=O)[C@H](CO)NC(=O)[C@H](Cc1ccc(O)cc1)NC(=O)CNC(=O)[C@H](CCC(N)=O)NC(=O)[C@@H](N)CCCNC(=N)N)NC(=O)[C@H](CC(C)C)NC(=O)[C@@H]1CCCN1C(=O)[C@H](CO)NC(=O)[C@H](Cc1ccc(O)cc1)NC(=O)CNC(=O)[C@H](CCC(N)=O)NC(=O)[C@@H](N)CCCNC(=N)N)C(=O)NCCCC[C@H](NC(=O)[C@H](CCCCNC(=O)[C@H](CCCCNC(=O)[C@H](CC(C)C)NC(=O)[C@@H]1CCCN1C(=O)[C@H](CO)NC(=O)[C@H](Cc1ccc(O)cc1)NC(=O)CNC(=O)[C@H](CCC(N)=O)NC(=O)[C@@H](N)CCCNC(=N)N)NC(=O)[C@H](CC(C)C)NC(=O)[C@@H]1CCCN1C(=O)[C@H](CO)NC(=O)[C@H](Cc1ccc(O)cc1)NC(=O)CNC(=O)[C@H](CCC(N)=O)NC(=O)[C@@H](N)CCCNC(=N)N)NC(=O)[C@H](CCCCNC(=O)[C@H](CC(C)C)NC(=O)[C@@H]1CCCN1C(=O)[C@H](CO)NC(=O)[C@H](Cc1ccc(O)cc1)NC(=O)CNC(=O)[C@H](CCC(N)=O)NC(=O)[C@@H](N)CCCNC(=N)N)NC(=O)[C@H](CC(C)C)NC(=O)[C@@H]1CCCN1C(=O)[C@H](CO)NC(=O)[C@H](Cc1ccc(O)cc1)NC(=O)CNC(=O)[C@H](CCC(N)=O)NC(=O)[C@@H](N)CCCNC(=N)N)C(=O)NCCC(=O)O` [RL1, (RQGYSPL)8-(K)4-(K)2-K-βA-OH]: the Inhibition was determined as 79.82% in the data set with H × 10 (HIV-1) strain (Molarity 1 × 10^−5, day 4, non diluted virus solution); 31.29% in the data set with H × 10 (HIV-1) strain (Molarity 1 × 10^−6, day 4, non diluted virus solution); 99.09% with H × 10 (HIV-1) strain (Molarity 5 × 10^−5, day 4, non diluted virus solution); 99.75% in the data set on H × 10 (HIV-1) strain (Molarity 5 × 10^−5, day 5, non diluted virus solution); 61.45% with H × 10 (HIV-1) strain (Molarity 5 × 10^−6, day 4, non diluted virus solution). Moreover, the “cellular toxicity and lethal activity” value in the data set with C57/BL6 and Balb-C mice was “neither cellular toxicity nor lethal activity”.
